Measured values published in patent US9718790B2, “Triazine derivative and pharmaceutical composition having an analgesic activity comprising the same” (SHIONOGI & CO., LTD., priority 2010, dated 2017).

Each molecule was assayed against human P2X3 receptor (Homo sapiens (Human), UniProt P56373) (assay: Evaluation of human P2X3 receptor inhibitory activity (Fluo-3 calcium fluorescence, FDSS 3000, ATP stimulation)). Details: C6BU-1 cells stably expressing human P2X3 receptor.
Type: cell-based
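Further: stimulus was 50 nM ATP with fluorescence followed for 3 min, and the response per well was peak post-ATP fluorescence divided by the reading at measurement start.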

Chain of human P2X3 receptor (P56373 whole entry): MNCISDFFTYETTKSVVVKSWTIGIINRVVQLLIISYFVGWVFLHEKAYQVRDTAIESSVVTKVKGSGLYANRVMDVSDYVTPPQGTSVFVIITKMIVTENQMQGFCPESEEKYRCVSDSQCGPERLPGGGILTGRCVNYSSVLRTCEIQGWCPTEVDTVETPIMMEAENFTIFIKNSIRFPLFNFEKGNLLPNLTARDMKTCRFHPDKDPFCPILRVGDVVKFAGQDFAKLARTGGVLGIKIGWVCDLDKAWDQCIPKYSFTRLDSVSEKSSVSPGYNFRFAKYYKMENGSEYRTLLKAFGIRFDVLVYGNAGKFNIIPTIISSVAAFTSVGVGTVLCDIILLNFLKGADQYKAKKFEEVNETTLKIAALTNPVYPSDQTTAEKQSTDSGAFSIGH

SMILES	IC50 [nM]
Cc1cc(/N=c2\[nH]c(=O)n(Cc3cccnc3OCCOC3CCCCO3)c(=O)n2Cc2ccc(Cl)cc2)ccc1OC(C)C (stereo not shown) [Compound I-0714]	30
COC(=O)[C@H](Cn1c(=O)[nH]/c(=N\c2ccc(OC(C)C)c(C)c2)n(Cc2ccc(Cl)cc2)c1=O)OC [Compound I-0806, (S)-1-(4-chlorobenzyl)-6-(3-mehyl-4-isopropoxyphenylimino)-3-(2-methoxycarbonyl-2-methoxy-ethyl)-1,3,5-triazinane-2,4-dion]	12
COC(=O)[C@@H](C)Cn1c(=O)[nH]/c(=N\c2ccc(C3CC3)cc2)n(Cc2ccc(C)cc2)c1=O [Compound I-1460]	272
COC(=O)[C@@H](C)Cn1c(=O)[nH]/c(=N\c2cnc(OC3CCC3)c(Cl)c2)n(Cc2ccc(C)cc2)c1=O [Compound I-1398]	25
COc1ccc(/N=c2\[nH]c(=O)n(C[C@H](C)C(=O)O)c(=O)n2Cc2ccc(Cl)cc2)cc1Cl [Compound I-0724]	250
CCOC(=O)CCn1c(=O)[nH]/c(=N\c2ccc(OC(C)C)c(OC)c2)n(Cc2ccc(Cl)cc2)c1=O [Compound I-1248]	6
C[C@H](CO)Cn1c(=O)[nH]/c(=N\c2ccc3oc(CO)cc3c2)n(Cc2ccc(Cl)cc2)c1=O [Compound I-1970]	82
CCn1c(=O)[nH]/c(=N\c2ccc3oc(C)c(CCO)c3c2)n(Cc2ccc(Cl)cc2)c1=O [Compound I-2171]	296
Cc1cc(/N=c2\[nH]c(=O)n(Cc3ccc[nH]c3=O)c(=O)n2Cc2ccc(Cl)cc2)ccc1OC(C)C [Compound I-0725]	14
COC(=O)C(C)(C)Cn1c(=O)[nH]/c(=N\c2ccc(OC(C)C)c(OC)c2)n(Cc2ccc(Cl)cc2)c1=O [Compound I-1273]	7
Cc1ccc(Cn2c(=O)n(CCC(=O)O)c(=O)[nH]/c2=N\c2ccc(Cl)cc2)cc1 [Compound I-2045]	975
CNC(=O)c1cc(Oc2ccc(/N=c3\[nH]c(=O)[nH]c(=O)n3Cc3ccc(Cl)cc3)cc2F)ccn1 [Compound I-2101]	26
Cc1cc(/N=c2\[nH]c(=O)n(CCCC(=O)N3CCOCC3)c(=O)n2Cc2ccc(Cl)cc2)ccc1OC(C)C [Compound I-0787]	24
CCn1c(=O)[nH]/c(=N\c2ccc(Oc3ccc(C)c(C(=O)O)c3)cc2)n(Cc2ccc(Cl)cc2)c1=O [Compound I-2017]	41
Cc1cc(Oc2ccc(/N=c3\[nH]c(=O)n(CC(CO)CO)c(=O)n3Cc3ccc(Cl)cc3)cc2)ccn1 [Compound I-1954]	5
CCOC(=O)CCn1c(=O)[nH]/c(=N\c2ccc3nc(C)sc3c2)n(CC2CCC(C)CC2)c1=O (stereo not shown) [Compound I-1990]	2
COC(=O)[C@@H](C)Cn1c(=O)[nH]/c(=N\c2ccc(OC(C)C)cc2)n(Cc2ccc(F)cc2)c1=O [Compound I-0618]	121
COC(=O)[C@@H](C)Cn1c(=O)[nH]/c(=N\c2ccc(OC)c(Cl)c2)n(Cc2ccc(Cl)cc2)c1=O [Compound I-0702]	107
C[C@@H](C(=O)O)[C@H](C)n1c(=O)[nH]/c(=N\c2ccc(Oc3cccnc3)cc2)n(Cc2ccc(Cl)cc2)c1=O [Compound I-1390]	15
Cc1cc(/N=c2\[nH]c(=O)n([C@@H]3CCOC3=O)c(=O)n2Cc2ccc(Cl)cc2)ccc1OC(C)C [Compound I-0808]	203
COC(=O)[C@H](C)[C@H](C)n1c(=O)[nH]/c(=N\c2ccc(CC(C)C)c(Cl)c2)n(Cc2ccc(C)cc2)c1=O [Compound I-1436]	54
CC[C@H](CC(=O)OC)n1c(=O)[nH]/c(=N\c2ccc(OC(C)C)c(C)c2)n(Cc2ccc(Cl)cc2)c1=O [Compound I-0783]	65

Same assay, conditions: C6BU-1 cells stably expressing human P2X3 receptor, Fluo-3 fluorescence, FDSS 3000

SMILES	IC50 [nM]
Cc1ccc(Cn2c(=O)n(C[C@H](C)C(=O)O)c(=O)[nH]/c2=N\c2ccc(OC3CC3)c(Cl)c2)cc1 [Compound I-1607]	35
COC(=O)[C@H](C)Cn1c(=O)[nH]/c(=N\c2ccc(OCC3CC3)cc2)n(Cc2ccc(Cl)cc2)c1=O [Compound I-1036]	5
COC(=O)Cn1c(=O)[nH]/c(=N\c2ccc(Oc3ccc(C)nc3)cc2)n(Cc2ccc(Cl)cc2)c1=O [Compound I-1904]	8
C[C@@H](C(=O)O)[C@H](C)n1c(=O)[nH]/c(=N\c2ccc3c(c2)CCN3S(C)(=O)=O)n(Cc2ccc(Cl)cc2)c1=O [Compound I-1774]	255
CC(C)Oc1ccc(/N=c2\[nH]c(=O)n(CC3(CO)COC3)c(=O)n2Cc2ccc(Cl)cc2)cc1Cl [Compound I-1010]	4
CCC[C@@H](C)Oc1ccc(/N=c2\[nH]c(=O)n(C[C@H](C)C(=O)O)c(=O)n2Cc2ccc(C)cc2)cc1 [Compound I-1061]	174
Cc1nc2ccc(/N=c3\[nH]c(=O)n(CC(C)(CO)CO)c(=O)n3Cc3ccc(Cl)cc3)cc2s1 [Compound I-1643]	5
Cc1cc(/N=c2\[nH]c(=O)n([C@H](C)[C@@H](C)C(=O)N[C@H](C)[C@@H](O)c3ccccc3)c(=O)n2Cc2ccc(Cl)cc2)ccc1OC(C)C [Compound I-1163]	823
CCOC(=O)C1(Cn2c(=O)[nH]/c(=N\c3ccc(OC(C)C)c(C)c3)n(Cc3ccc(C)cc3)c2=O)CC1 [Compound I-0941]	5
Cc1ccc(Cn2c(=O)n(CC3(CC(=O)O)CC3)c(=O)[nH]/c2=N\c2ccc(OC(C)C)c(Cl)c2)cc1 [Compound I-0983]	7

Same assay, conditions: human P2X3 receptor, Test Example 1

SMILES	IC50 [nM]
Cc1ccc(Cn2c(=O)n(C[C@H](O)CO)c(=O)[nH]/c2=N\c2ccc(Oc3ccon3)cc2)cc1 [Compound I-2510]	10
Cc1ccc(Cn2c(=O)n(CCC(=O)O)c(=O)[nH]/c2=N\c2ccc(Oc3cccc(C#N)n3)cc2)cc1 [Compound I-2634]	11
CCn1c(=O)[nH]/c(=N\c2ccc(Oc3cccc(Cl)n3)cc2)n(Cc2ccc(Cl)cc2)c1=O [Compound I-2441]	10
CCc1cc2cc(/N=c3\[nH]c(=O)n(C[C@H]4COC(C)(C)O4)c(=O)n3Cc3ccc(Cl)cc3)ccc2o1 [Compound I-2314]	7
O=C(Cn1c(=O)[nH]/c(=N\c2ccc(Oc3cccnn3)cc2)n(Cc2ccc(Cl)cc2)c1=O)NCCO [Compound I-2691]	8
Cc1nc2ccc(/N=c3\[nH]c(=O)n(CCC(=O)O)c(=O)n3Cc3ccc(Cl)cc3)cc2s1 [Compound I-1520]	32
CCn1c(=O)[nH]/c(=N\[C@H]2CC[C@H](Oc3ccnc(C(=O)NC)c3)CC2)n(Cc2ccc(Cl)cc2)c1=O [Compound I-2246]	790
Cc1cccc(Oc2ccc(/N=c3\[nH]c(=O)n(CC(CO)CO)c(=O)n3Cc3ccc(Cl)cc3)cc2)n1 [Compound I-2610]	12
Cn1c(=O)[nH]/c(=N\c2ccc(Oc3ccon3)cc2)n(Cc2ccc(Cl)cc2)c1=O [Compound I-2356]	24
O=C(Cn1c(=O)[nH]/c(=N\c2ccc(Oc3nccs3)cc2)n(Cc2ccc(Cl)cc2)c1=O)NCCO [Compound I-2646]	8
COC(=O)[C@@H](C)Cn1c(=O)[nH]/c(=N\c2ccc(-c3noc(C)n3)cc2)n(Cc2ccc(Cl)cc2)c1=O [Compound I-1529]	26
CCCOc1ccc(/N=c2\[nH]c(=O)n(CC(F)(F)C(=O)OCC)c(=O)n2Cc2ccc(C)cc2)cc1 [Compound I-0859]	17
CC[C@@H](Cn1c(=O)[nH]/c(=N\c2ccc(OC(C)C)c(C)c2)n(Cc2ccc(Cl)cc2)c1=O)C(=O)OC [Compound I-0887]	23
Cc1cnc(Oc2ccc(/N=c3\[nH]c(=O)n(CCO)c(=O)n3Cc3ccc(Cl)cc3)cc2)s1 [Compound I-2457]	13
